Experimental data from publication PMC9109057, “Designing Self‐Assembling Chimeric Peptide Nanoparticles with High Stability for Combating Piglet Bacterial Infections” (Advanced Science, 2022).
≈ marks a conversion by molar mass, not a printed value. Where a SMILES comes first, the peptide text is derived from it. [ ]: non-standard residue; d: D form. The star is where a group is joined. PEG8 = NCCOCCOCCOCCOCCOCCOCCOCCOCCC(=O)O; Myristoyl = CCCCCCCCCCCCCC(=O)*

What was measured:
porcine red blood cells = type: cell-based; details: pH 7.4
Protocol: Fresh porcine red blood cells were used to study the hemolysis of self‐assembled peptide nanoparticles.^[ [48] ^] The red blood cells were collected by washing with PBS (10 × 10^−3 M, pH 7.4) until the supernatant became clear. A 10% v/v red blood cell suspension was prepared with PBS, and peptide nanoparticles with a final concentration of 128 × 10^−6 M were added to the suspension (1 mL). After gentle incubation at 37 °C for 2 h, the cells were centrifuged at 6000 rpm for 5 min, and the absorbance of the supernatant was measured at 570 nm. Two red blood cell suspensions (one containing 0.2% Triton X‐100, the other without peptide nanoparticles) were used as positive and negative controls, respectively. The hemolysis of each sample was calculated, and images were collected.

C57BL/6 mice = details: mouse, in vivo, ip
Protocol: Healthy female C57BL/6 mice (weight is about 20 g) were randomly divided into five groups with six replicates per group. Mice were acclimated for 3 d in an environment of suitable temperature (20–24 °C), humidity (50–60%), and alternating light and dark. During the assay, the first group of mice was intraperitoneally injected with 150 µL of saline (once daily), and the second to fifth groups of mice were intraperitoneally injected with 150 µL nanoparticles NPs1 or NPs2 at doses of 15 and 30 mg kg^−1 (once daily). Continuous injection was given for 7 days. At 12 h after the last administration, the mice were euthanized using mild ether anesthesia. Blood samples were taken from the mice's orbital vein, and serum was analyzed using an automatic biochemical analyzer. The kidneys and livers of the mice were taken, weighed, and fixed with 4% paraformaldehyde; then, histological analysis was performed via H&E staining.

E. coli ATCC25922 = type: cell-based
Protocol: (§1) The MICs of the self‐assembling peptide nanoparticles were determined using the modified broth microdilution method.^[ [46] ^] The bacteria were resuspended in a logarithmic growth phase in a Mueller–Hinton broth (MHB) medium, the optical density (OD) at a wavelength of 600 nm was adjusted to ≈ 0.4, and the suspension was diluted 1000 times with MHB. In a 96‐well plate, the peptides were diluted via multiple dilutions using a 0.2% bovine serum albumin solution to a concentration range of 0.25 × 10^−6–128 × 10^−6 M. Subsequently, the diluted bacterial solution and peptide solution were mixed in a 1:1 ratio in a 96‐well plate and incubated at 37 °C. After 18–24 h, the absorbance at 492 nm was measured using a microplate reader. The MIC value was defined as the lowest peptide nanoparticle concentration without bacterial growth. Each test was performed in duplicate and repeated three times.

P. aeruginosa 27853 = type: cell-based
Protocol: as §1

S. aureus ATCC6538 = type: cell-based
Protocol: as §1

HEK293T cells = experiment: Cytotoxicity assay (MTT; SYTO9/PI live/dead imaging); type: cell-based, Human; details: 64 × 10^−6 M, 2 h, 37 °C, laser confocal microscope
Protocol: 3‐(4,5‐dimethylthiazol‐2‐yl)‐2,5‐diphenyltetrazolium bromide (MTT) dye was used to determine the cytotoxicity of the peptide nanoparticles.^[ [47] ^] Human embryonic kidney (HEK) 293T cells were seeded into 96‐well plates at a concentration of (1–2) × 10^5 cells per well in high glucose DMEM and placed in a cell incubator (5% CO2, 37 °C) for 24 h. After discarding the medium, peptides (100 µL) were added with a concentration range of 0.125 × 10^−6–64 × 10^−6 M to wells 1–10 of a 96‐well plate and incubated at 37 ℃ for 2 h. Samples without peptides were used as positive controls and samples without cells were used as negative controls. Subsequently, 20 µL of MTT (5 mg mL^−1) was added to each well before another 4 h of incubation. After discarding the supernatant, 150 µL of dimethyl sulfoxide was added to each well of the 96‐well plate, to fully dissolve the crystals; then, the absorbance at a wavelength of 570 nm was measured using a microplate reader. Each test was performed in duplicate and repeated three times. Cell viability was expressed as a percentage. For laser confocal microscope samples, after the peptides (the final concentration is 64 × 10^−6 M) were added to a 96‐well plate, the final concentration of 5 × 10^−6 M SYTO9 and 20 µg mL^−1 PI dye was added to a 96‐well plate, and incubated at 37 ℃ for 2 h. Cells were imaged using a laser scanning confocal microscope. A sample without peptide nanoparticles was used as a control.

chymotrypsin = molecular target: T1, chymotrypsin (Bos taurus, UniProt P00766); experiment: Protease stability assay (MIC and RP-HPLC read-out); type: in vitro ADME; details: equal volumes of peptide 2560 × 10^−6 M and chymotrypsin 8 mg mL^−1, 37 °C, 1 h; MIC vs E. coli ATCC25922 and S. aureus ATCC6538; n = 6
T1 construct: purchased Sigma-Aldrich (China)
Protocol: (§2) An equal volume of peptide nanoparticles (2560 × 10^−6 M) and pepsin, trypsin, or chymotrypsin (8 mg mL^−1) was mixed and incubated at 37 °C for 1 h. Then, the MICs of peptide nanoparticles against E. coli ATCC25922 and S. aureus ATCC6538 were measured using the above‐mentioned method. Each test was performed in duplicate and repeated three times.
(§3) For RP‐HPLC, an equal volume of peptide nanoparticles (2560 × 10^−6 M) and pepsin, trypsin, or chymotrypsin (4 or 8 mg mL^−1) was mixed. The mixed solution was incubated at 37 °C for a predetermined time (0, 2, 4, or 8 h), and the protease was completely inactivated by heating in boiling water at 100 °C for 5 min. The concentration of peptide nanoparticles in the samples was then diluted to 256 × 10^−6 M, and the samples were analyzed using an RP‐HPLC system equipped with an Acchorm Unitary C18 column (5 µm, 100 Å, 4.6 mm × 250 mm). A gradient of 42% to 96% acetonitrile in water with 0.1% trifluoroacetic acid was used as the mobile phase at a flow rate of 0.8 mL min^−1. UV detection was performed at a wavelength of 214 nm.

trypsin = experiment: as above; type: in vitro ADME; details: equal volumes of peptide 2560 × 10^−6 M and trypsin 8 mg mL^−1, 37 °C, 1 h; MIC vs E. coli ATCC25922 and S. aureus ATCC6538; n = 6
Protocol: as §2, §3

pepsin = molecular target: T2, pepsin (Sus scrofa, UniProt P00791); experiment: as above; type: in vitro ADME; details: for Antibacterial activity (MIC) after treatment with pepsin: equal volumes of peptide 2560 × 10^−6 M and pepsin 8 mg mL^−1, 37 °C, 1 h, MIC vs E. coli ATCC25922 and S. aureus ATCC6538, n = 6; for RP-HPLC peak shape and area after treatment with pepsin: pepsin 4 or 8 mg mL^−1, 37 °C, 8 h vs 0 h control, C18 RP-HPLC, UV 214 nm
T2 construct: purchased Sigma-Aldrich (China)
Protocol: as §2, §3

S.epidermidis 49134 = type: cell-based
Protocol: as §1

C. rodentium DBS100 = type: cell-based
Protocol: as §1

S. aureus CVCC1882 = type: cell-based
Protocol: as §1

T2 sequence (P00791 60-385): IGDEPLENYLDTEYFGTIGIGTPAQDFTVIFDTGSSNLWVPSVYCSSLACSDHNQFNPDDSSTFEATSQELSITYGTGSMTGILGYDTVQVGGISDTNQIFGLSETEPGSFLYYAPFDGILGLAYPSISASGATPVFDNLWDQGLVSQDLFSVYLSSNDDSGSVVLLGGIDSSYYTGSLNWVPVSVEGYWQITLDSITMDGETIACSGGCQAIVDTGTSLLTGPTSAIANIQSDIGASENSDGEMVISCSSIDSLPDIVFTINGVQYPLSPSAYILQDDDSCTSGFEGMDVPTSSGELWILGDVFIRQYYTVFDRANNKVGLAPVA

Row | SMILES | MHC (porcine red blood cells) | Side effects on mice (C57BL/6 mice) | MIC E. coli 25922 (E. coli ATCC25922) | MIC P. aeruginosa 27853 (P. aeruginosa 27853) | MIC S. aureus 6538 (S. aureus ATCC6538) | Live/dead (SYTO9/PI) imaging of HEK293T cells (HEK293T cells) | Antibacterial activity (MIC) after treatment with chymotrypsin (chymotrypsin) | Antibacterial activity (MIC) after treatment with trypsin (trypsin) | Antibacterial activity (MIC) after treatment with pepsin (pepsin) | RP-HPLC peak shape and area after treatment with pepsin (pepsin) | MIC S.epidermidis 49134 (S.epidermidis 49134) | MIC C. rodentium DBS100 (C. rodentium DBS100) | MIC S. aureus 1882 (S. aureus CVCC1882)
1 | CCCCCCCCCCCCCC(=O)N1CCC[C@H]1C(=O)N[C@@H](Cc1ccccc1)C(=O)N1CCC[C@H]1C(=O)N[C@@H](Cc1ccccc1)C(=O)N1CCC[C@H]1C(=O)N[C@@H](Cc1ccccc1)C(=O)N1CCC[C@H]1C(=O)N[C@@H](CCCCNC(=O)CCOCCOCCOCCOCCOCCOCCOCCOCCN)C(=O)N1CCC[C@H]1C(=O)N[C@@H](CCCCN)C(=O)N1CCC[C@H]1C(=O)N[C@@H](CCCCN)C(=O)N1CCC[C@H]1C(=O)N[C@@H](CCCCN)C(=O)N1CCC[C@H]1C(=O)N[C@@H](CCCCN)C(=O)N1CCC[C@H]1C(=O)N[C@@H](CCCCN)C(=O)N1CCC[C@H]1C(N)=O [NPs1] (Myristoyl-PFPFPFPK(PEG8)PKPKPKPKPKP-NH2) | > 128 | negligible | 9.3 ± 3.0 µM (≈ 26.3 µg/mL) | 12.0 ± 4.0 µM (≈ 34 µg/mL) | 5.3 ± 1.9 µM (≈ 15 µg/mL) | only led to a few cell deaths | remained essentially unchanged | remained essentially unchanged | remained essentially unchanged | remained intact |  |  | 
2 | CCCCCCCCCCCCCC(=O)N1CCC[C@H]1C(=O)N[C@@H](Cc1ccccc1)C(=O)N1CCC[C@H]1C(=O)N[C@@H](Cc1ccccc1)C(=O)N1CCC[C@H]1C(=O)N[C@@H](Cc1ccccc1)C(=O)N1CCC[C@H]1C(=O)N[C@@H](CCCCN)C(=O)N1CCC[C@H]1C(=O)N[C@@H](CCCCN)C(=O)N1CCC[C@H]1C(=O)N[C@@H](CCCCN)C(=O)N1CCC[C@H]1C(=O)N[C@@H](CCCCN)C(=O)N1CCC[C@H]1C(=O)N[C@@H](CCCCN)C(=O)N1CCC[C@H]1C(=O)N[C@@H](CCCCNC(=O)CCOCCOCCOCCOCCOCCOCCOCCOCCN)C(=O)N1CCC[C@H]1C(N)=O [NPs2] (Myristoyl-PFPFPFPKPKPKPKPKPK(PEG8)P-NH2) | > 128 | negligible | 8 µM (≈ 22.7 µg/mL) | 13.3 ± 3.8 µM (≈ 37.7 µg/mL) | 6.7 ± 1.9 µM (≈ 19 µg/mL) | only led to a few cell deaths | remained essentially unchanged | remained essentially unchanged | remained essentially unchanged | remained intact | 9.3 ± 3.0 µM (≈ 26.3 µg/mL) | 6.7 ± 1.9 µM (≈ 19 µg/mL) | 10.0 ± 4.5 µM (≈ 28.3 µg/mL)
3 | CCCCCCCCCCCCCC(=O)N1CCC[C@H]1C(=O)N[C@@H](Cc1ccccc1)C(=O)N1CCC[C@H]1C(=O)N[C@@H](Cc1ccccc1)C(=O)N1CCC[C@H]1C(=O)N[C@@H](Cc1ccccc1)C(=O)N1CCC[C@H]1C(=O)N[C@@H](CCCCN)C(=O)N1CCC[C@H]1C(=O)N[C@@H](CCCCN)C(=O)N1CCC[C@H]1C(=O)N[C@@H](CCCCN)C(=O)N1CCC[C@H]1C(=O)N[C@@H](CCCCN)C(=O)N1CCC[C@H]1C(=O)N[C@@H](CCCCN)C(=O)N1CCC[C@H]1C(=O)N[C@@H](CCCCN)C(=O)N1CCC[C@H]1C(=O)NCCOCCOCCOCCOCCOCCOCCOCCOCCC(N)=O [NPs3] (Myristoyl-PFPFPFPKPKPKPKPKPKP[PEG8]-NH2) | > 128 |  | 9.3 ± 3.0 µM (≈ 26.3 µg/mL) | 21.3 ± 7.5 µM (≈ 60.3 µg/mL) | 7.3 ± 1.5 µM (≈ 20.7 µg/mL) | only led to a few cell deaths |  |  |  |  | 9.3 ± 3.0 µM (≈ 26.3 µg/mL) |  | 14.7 ± 3.0 µM (≈ 41.6 µg/mL)
